Measurements from US11439667B2, “Compositions and methods for expansion of embryonic hematopoietic stem cells” (Fred Hutchinson Cancer Research Center, priority 2013, dated 2022).

What was measured:
[1] = tested on: mouse AGM VE-Cadherin+/CD45+ cells; test: ex vivo expansion of AGM-derived embryonic HSPC, surface phenotype by FACS; assay type: cell-based; conditions: combined with Notch agonist (such as Delta1ext-IgG) and one or more growth factors
Source text: Embryos were harvested from pregnant females at 9.5 to 11.5 dpc, dissected free of maternal tissue and washed extensively in PBS containing 10% fetal bovine serum (FBS). Embryo age was precisely time by counting somite numbers. Yolks sac was dissected free from the embryo. For AGM dissections, 30 gauge needles were used to remove the caudal and rostral portions of the embryo above the forelimbs and below the hindlimbs, and subsequently dissect off the dorsal somite tissue and ventral abdominal contents. The embryo was then splayed open lying on its dorsal surface and remaining tissues surrounding the urogenital ridges were further dissected, leaving the intact AGM containing the dorsal aorta centrally. For embryos prior to AGM stage (E9.5 or less), the P-Sp region was dissected by removing the rostral and caudal portions of the embryo. Dissected yolk sac or AGM/P-Sp tissues were pooled and treated with 0.25% collagenase (Stem Cell Technologies, Vancouver, Canada) for 25-30 minutes at 37° C., pipetted to single cell suspension, and washed with PBS containing 10% FBS. For Ly6a-eGFP transgenic embryos, dissected embryos were processed separately and pooled for sorting, if indicated, following confirmation of GFP expression. […]

human osteosarcoma cells = conditions: cited from earlier work
human ESC = conditions: Wang C, et al. Cell Res. 2012; cited from earlier work
ALK7 = target: T1, ALK7 (Homo sapiens, UniProt Q8NER5); conditions: cited from earlier work
T1 sequence (Q8NER5 21-493): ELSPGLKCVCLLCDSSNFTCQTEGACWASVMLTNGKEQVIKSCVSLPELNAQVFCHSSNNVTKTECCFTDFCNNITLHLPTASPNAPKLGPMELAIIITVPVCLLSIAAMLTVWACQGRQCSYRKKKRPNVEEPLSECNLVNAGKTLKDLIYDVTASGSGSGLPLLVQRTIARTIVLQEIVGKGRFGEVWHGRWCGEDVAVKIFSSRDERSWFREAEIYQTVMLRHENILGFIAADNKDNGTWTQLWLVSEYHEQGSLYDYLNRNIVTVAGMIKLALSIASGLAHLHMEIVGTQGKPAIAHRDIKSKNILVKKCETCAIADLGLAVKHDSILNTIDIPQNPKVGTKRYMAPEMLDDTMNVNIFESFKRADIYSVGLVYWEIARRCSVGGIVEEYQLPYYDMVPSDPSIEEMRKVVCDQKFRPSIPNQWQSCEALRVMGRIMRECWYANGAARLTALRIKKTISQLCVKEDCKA

[2] = tested on: ESC-derived endothelial cells; conditions: cited from earlier work

NC(=O)c1ccc(-c2nc(-c3ccc4c(c3)OCO4)c(-c3ccccn3)[nH]2)cc1 [SB431542, 4-[4-(1,3-benzodioxol-5-yl)-5-(2-pyridinyl)-1H-imidazol-2-yl]benzamide]
effect on expansion of the eHSC when combined with Notch agonist and growth factors [1]: additive and/or synergistic effect
effect on TGF-β-induced proliferation of human osteosarcoma cells (human osteosarcoma cells): suppress
effect on general hematopoiesis from human ESC (human ESC): enhance general hematopoiesis, though not engrafting HSC
inhibition of ALK7 (ALK7): potent and selective inhibitor
effect on proliferation, differentiation and sheet formation of ESC-derived endothelial cells [2]: stimulate
